Laboratory results as given in patent publication US6211158A, “Desazapurine-nucleotide derivatives, processes for the preparation thereof, pharmaceutical compositions containing them and the use thereof for nucleic acid sequencing and as antiviral agents” (Roche Diagnostics GmbH, priority 1987, dated 2001).

Legend:
[1] = Stability of the N-glycosidic bond under acidic conditions, UV-absorbance as a function of time (Example 30); assay type: physicochemical; set-up: key to stability towards hydrolysis (classified): classified as stable, when no hydrolysis occurred within the hydrolysis time of the corresponding purine-derivatives; settings: for half-life: read-out: half life [t(1/2)] of hydrolysis
Description: The determination of the stability of the N-glycosidic bond was carried out under acidic conditions by measuring the UV-absorbance as a function of time. The compounds were classified as stable, when no hydrolysis occurred within the hydrolysis time of the corresponding purine-derivatives.
Table of kinetic data with respect to hydrolysis of […]

[2] = Hydrolysis of the N-glycosidic bond in hydrochloric acid at 25° C., UV absorption at 258 nm (Example 29); assay type: physicochemical; settings: for half-life: read-out: half life time T/2 of hydrolysis
Description: The stability of the N-glycosidic bond of 2',3'-didesoxynucleosides is bound up with the antiviral activity.
The hydrolysis of the bond was investigated at 25° C. in three different concentrations of hydrochloric acid. For this purpose, the UV absorption (Et) was measured at 258 nm. Via the absorption/time curve, there were determined the velocity constants of the hydrolysis (k) and the half life times (T/2) on the basis of the following equation:
k=1/t×ln(Eo -Eoo)/(Et -Eoo)
Eo being the absorption at time t=0 and Eoo being the absorption after complete termination of the reaction.
There were compared 2',3'-dideoxyadenosine (a) and 6-amino-8-aza-7-deaza-2',3'-dideoxy-9-β-D-ribofuranosylpurine (b) at 25° C.

Row | SMILES | half-life ([1]; 0.01 n hcl) [min] | stability towards hydrolysis (classified) ([1]; 0.01 N HCl) | stability towards hydrolysis (classified) ([1]; 0.1 N HCl) | stability towards hydrolysis (classified) ([1]; 1 N HCl) | also measured
1 | Nc1nc2c(ncn2[C@H]2CC[C@@H](CO)O2)c(=O)[nH]1 [ddG, reference compound] | 37 | – | – | – | –
2 | Nc1nc2c(ccn2[C@H]2CC[C@@H](CO)O2)c(=O)[nH]1 [c^7 ddG, 2-Amino-7-deaza-2',3'-dideoxy-9-β-D-ribofuranosylpurine-6-one] | – | stable | stable | stable | –
3 | Nc1ncnc2c1ncn2[C@H]1CC[C@@H](CO)O1 [ddA, 2',3'-dideoxyadenosine, reference compound] | 31.5 | – | – | – | half-life ([1]; 0.1 n hcl): 1.9 min; velocity constant of the hydrolysis k ([2]; 0.01 N HCl): 0.022 min⁻¹; half-life ([2]; 0.01 N HCl): 31.5 min; half-life ([2]; 0.1 N HCl): 1.9 min
4 | Nc1nccc2c1ccn2[C@H]1CC[C@@H](CO)O1 [c^3 c^7 ddA, 6-amino-3,7-dideaza-2',3'-dideoxy-9-β-D-ribofuranosylpurine] | – | stable | stable | stable | –
5 | Nc1nc2c(cnn2[C@H]2CC[C@@H](CO)O2)c(=O)[nH]1 [c^7 z^8 ddG, 2-Amino-(2',3'-dideoxy-β-D-glyceropentofuranosyl)-1H-pyrazolo[3,4-d]pyrimidin-4-one] | 135 | – | – | – | –
6 | Nc1ncnc2c1cnn2[C@H]1CC[C@@H](CO)O1 [c^7 z^8 ddA, 6-Amino-8-aza-7-deaza-2',3'-dideoxy-9-β-D-ribofuranosylpurine] | 280 | – | – | – | half-life ([1]; 0.1 n hcl): 20.4 min; velocity constant of the hydrolysis k ([2]; 0.01 N HCl): 0.0025 min⁻¹; half-life ([2]; 0.01 N HCl): 280 min; half-life ([2]; 0.1 N HCl): 20.4 min; half-life ([2]; 1 N HCl): 0.83 min; times more stable than (a) ([2]; compared with 2',3'-dideoxyadenosine (a), HCl): more than 10 times
7 | Nc1ncnc2c1ccn2[C@H]1CC[C@@H](CO)O1 [c^7 ddA, 4-Amino-7-(2',3'-dideoxy-β-D-glyceropentofuranosyl)-7H-pyrrolo[2,3-d]pyrimidine] | – | stable | stable | stable | –
